Laboratory results published in publication PMC12526203, “Multicomponent Synthesis of Multi-Target Quinazolines Modulating Cholinesterase, Oxidative Stress, and Amyloid Aggregation Activities for the Therapy of Alzheimer’s Disease” (Molecules, 2025).
Several values for one entry are separate records, joined by “and”; a condition that tells them apart may be missing. Identical values can stand only once. Entries after “also recorded” stand apart in the source; their conditions may differ. Like-named read-outs stand apart in the source and are kept apart here.

Tests used:
[1] = ORAC-FL (Oxygen Radical Absorbance Capacity by Fluorescence) assay; conditions: Trolox equivalents
Experimental: Briefly, fluorescein and the test compound were pre-incubated in a black 96-well microplate (Nunc) at 37 °C for 15 min. Then, 2,2′-azobis(amidinopropane) dihydrochloride was rapidly added using the integrated injector of a Varioskan Flash plate reader (Thermo Scientific). […] Each experiment was conducted in triplicate, with a minimum of three independent assays performed per compound.

[2] = target: T1, Aβ1–42 (Homo sapiens, UniProt P05067); test: Aβ1–42 self-aggregation, thioflavin T-based fluorometric assay; assay type: biochemical; conditions: ThT assay; for inhibition at 50 µM (stock): [Aβ] = [Inhibitor] = 50 μM (Figure 1 legend)
T1 construct: purchased Merck
Experimental: Curcumin was used as a positive control.
A ThT fluorescence assay evaluated the effect of the test compounds on Aβ1−42 fibril formation. Aβ stock solutions were diluted to 50 μM in ultrapure water before use. […] Control samples were prepared by replacing Aβ with 50 mM phosphate buffer (pH 7.4), with or without the inhibitors. After incubation, samples were diluted to 360 μL with 50 mM glycine-NaOH buffer (pH 8.0) containing thioflavin T (5 μM).

[3] = target: T2, Electrophorus electricus AChE (EeAChE) (Electrophorus electricus, UniProt O42275); test: biochemical; conditions: for inhibition at 10 µM: read-out: % inhibition of EeAChE at 10 μM (footnote c); for IC50: Ellman method, pH 8.0
T2 construct: purchased Merck
Experimental: (§1) The inhibitory activities of the tested compounds against EeAChE and eqBuChE were determined using the spectrophotometric procedure based on Ellman’s method. […] After a pre-incubation step, acetylthiocholine iodide (105 µL, final concentration 0.35 mM) or butyrylthiocholine iodide (150 µL, final concentration 0.5 mM) was added, and the mixture was incubated for an additional 15 min.

[4] = target: T3, equine BuChE (eqBuChE) (Equus caballus, UniProt P81908); test: biochemical; assay type: biochemical; conditions: for inhibition at 10 µM: read-out: % inhibition of eqBuChE at 10 μM (footnote c); for IC50: pH 8.0
T3 construct: purchased Merck
Experimental: as §1

[5] = reported as a standard antioxidant; cited from earlier work

T2 sequence (O42275 24-633): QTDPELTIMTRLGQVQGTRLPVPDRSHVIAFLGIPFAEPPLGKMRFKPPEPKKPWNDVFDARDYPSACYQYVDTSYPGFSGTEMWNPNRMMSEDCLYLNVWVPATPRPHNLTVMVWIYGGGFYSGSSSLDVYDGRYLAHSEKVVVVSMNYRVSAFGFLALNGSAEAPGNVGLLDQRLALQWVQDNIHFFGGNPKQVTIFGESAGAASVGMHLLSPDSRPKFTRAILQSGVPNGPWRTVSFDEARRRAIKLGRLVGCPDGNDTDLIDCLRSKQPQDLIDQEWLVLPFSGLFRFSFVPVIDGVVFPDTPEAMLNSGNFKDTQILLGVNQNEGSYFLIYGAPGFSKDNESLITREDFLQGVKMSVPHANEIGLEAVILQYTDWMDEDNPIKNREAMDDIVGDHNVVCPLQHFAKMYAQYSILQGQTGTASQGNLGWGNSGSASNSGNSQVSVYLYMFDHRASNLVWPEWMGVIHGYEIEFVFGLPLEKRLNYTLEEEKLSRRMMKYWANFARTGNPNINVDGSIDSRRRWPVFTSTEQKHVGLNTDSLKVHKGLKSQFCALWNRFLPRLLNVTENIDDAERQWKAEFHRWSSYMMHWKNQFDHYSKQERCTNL
T3 sequence (P81908 whole entry): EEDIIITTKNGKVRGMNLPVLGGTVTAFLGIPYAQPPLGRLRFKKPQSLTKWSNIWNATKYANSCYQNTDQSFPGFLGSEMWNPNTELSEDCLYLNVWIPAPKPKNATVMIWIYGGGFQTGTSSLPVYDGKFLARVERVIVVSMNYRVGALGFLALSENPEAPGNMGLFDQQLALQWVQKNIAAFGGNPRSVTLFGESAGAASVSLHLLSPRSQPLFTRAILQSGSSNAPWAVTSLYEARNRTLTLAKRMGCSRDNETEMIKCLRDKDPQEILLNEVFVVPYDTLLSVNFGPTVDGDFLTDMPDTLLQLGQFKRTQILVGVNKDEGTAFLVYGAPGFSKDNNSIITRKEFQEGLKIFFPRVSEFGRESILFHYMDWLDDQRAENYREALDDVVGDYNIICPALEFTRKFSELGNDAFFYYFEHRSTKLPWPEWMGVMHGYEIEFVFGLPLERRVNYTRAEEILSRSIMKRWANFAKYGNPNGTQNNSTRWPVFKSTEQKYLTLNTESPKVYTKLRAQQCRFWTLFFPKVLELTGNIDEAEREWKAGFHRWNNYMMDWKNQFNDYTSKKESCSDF
T1 sequence (P05067 672-713): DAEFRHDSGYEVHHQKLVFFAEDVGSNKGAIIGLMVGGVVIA

SMILES | ORAC [1] | inhibition at 50 µM (stock) [2] | inhibition at 10 µM [3] | inhibition at 10 µM [4] | IC50 ([4]; Ellman method) | IC50 [3] | eqBuChE inhibition (in words) ([4]; Ellman method) | Inhibition of Aβ1–42 self-aggregation (in words) [2] | ORAC [5]
Cc1ccc(Nc2nc(C)nc3ccccc23)cc1 [3j, 2-Methyl-4-(p-tolyl)aminoquinazoline] | 0.75 ± 0.08 TE | 21.2% | < 50% | < 50% |  |  |  |  | 
CCc1nc(Nc2cc(OC)cc(OC)c2)c2ccccc2n1 [3f, 2-ethyl-4-(3,5-Dimethoxyphenyl)aminoquinazoline] | 1.29 ± 0.08 TE | 13.6% | < 50% |  | 8.5 ± 1.16 µM |  |  |  | 
CCc1nc(Nc2ccc(OC)c(OC)c2)c2ccccc2n1 [3h, 2-ethyl-4-(3,4-Dimethoxyphenyl)aminoquinazoline] | 5.73 TE and 5.73 ± 0.39 TE | 36.7% |  | < 50% |  | 6.67 µM and 6.61 µM | inactive |  | 
c1ccc(Nc2ncnc3ccccc23)cc1 [3a, 4-anilinoquinazoline] |  | 10.3% | < 50% | < 50% |  |  |  |  | 
Cc1nc(Nc2cccc(C)c2C)c2ccccc2n1 [3m, 2-methyl-4-(2,3-Dimethylphenyl)aminoquinazoline] |  | 15.8% | < 50% | < 50% |  |  |  |  | 
CCc1nc(Nc2ccccc2)c2ccccc2n1 [3c, 2-Ethyl-4-anilinoquinazoline] |  |  | < 50% |  | 5.34 ± 0.15 µM |  |  |  | 
CCc1nc(Nc2ccc(Cl)cc2)c2ccccc2n1 [3q, 2-ethyl-4-(4-Chlorophenyl)aminoquinazoline] |  | 1.45% | < 50% |  | 8.64 ± 0.3 µM |  |  |  | 
COc1ccc(Nc2ncnc3ccccc23)cc1OC [3g, 4-(3,4-Dimethoxyphenyl)aminoquinazoline] | 5.46 TE and 5.46 ± 0.11 TE | 14.7% | < 50% | < 50% |  |  |  |  | 
CCc1nc(Nc2ccc(C)cc2)c2ccccc2n1 [3k, 2-Ethyl-4-(p-tolyl)aminoquinazoline] | 0.58 ± 0.04 TE | 9.4% | < 50% | < 50% |  |  |  |  | 
Cc1nc(Nc2ccccc2)c2ccccc2n1 [3b, 2-Methyl-4-anilinoquinazoline] | 0.51 ± 0.02 TE |  | < 50% | < 50% |  |  |  | did not display measurable activity | 
O=[N+]([O-])c1ccc(Nc2ncnc3ccccc23)cc1 [3n, 4-(4-Nitrophenyl)aminoquinazoline] |  | 6.57% | < 50% | < 50% |  |  |  |  | 
Clc1ccc(Nc2ncnc3ccccc23)cc1 [3p, 4-(4-Chlorophenyl)aminoquinazoline] | 0.40 ± 0.07 TE |  | < 50% | < 50% |  |  |  | inactive; also recorded: did not display measurable activity | 
Cc1cccc(Nc2ncnc3ccccc23)c1C [3l, 4-(2,3-Dimethylphenyl)aminoquinazoline] | 0.32 ± 0.05 TE | 8.74% | < 50% | < 50% |  |  |  |  | 
COc1cc(/C=C/C(=O)O)ccc1O [ferulic acid] |  |  |  |  |  |  |  |  | 3.7 TE
COc1cc(/C=C/C(=O)CC(=O)/C=C/c2ccc(O)c(OC)c2)ccc1O [Curcumin, reference compound] |  | 58% |  |  |  |  |  |  | 
Cc1nc(Nc2ccc([N+](=O)[O-])cc2)c2ccccc2n1 [3o, 2-Methyl-4-(4-nitrophenyl)aminoquinazoline] | 0.36 ± 0.01 TE | 13.7% | < 50% | < 50% |  |  |  |  | 
COc1cc(Nc2nc(C)nc3ccccc23)cc(OC)c1 [3e, 2-methyl-4-(3,5-Dimethoxyphenyl)aminoquinazoline] | 1.81 ± 0.19 TE |  |  |  | 9.43 ± 1.13 µM | 6.04 ± 1.05 µM |  | did not display measurable activity | 
COc1cc(Nc2ncnc3ccccc23)cc(OC)c1 [3d, 4-(3,5-Dimethoxyphenyl)aminoquinazoline] |  |  | < 50% | < 50% |  |  |  | did not display measurable activity | 
Cc1ccc(Nc2ncnc3ccccc23)cc1 [3i, 4-(p-Tolyl)aminoquinazoline] |  | 7.1% | < 50% | < 50% |  |  |  |  | 
